Assay results as given in article PMC10761377 (2023).

Assays:
[1] = test system: FPAP (fipronil aptamer with primers) (DNA, aptamer) TGTACCGTCTGAGCGATTCGTACAGTTTCTGGAGGACTGGGCGGGGTGACGGTTATGAGCCAGTCAGTGTTAAGGAGTGC; assay: chronoamperometric binding titration on SPCE (streptavidin-HRP/TMB); settings: NaCl 100 mM, MgCl2 2 mM; Tris-HCl 20 mM; 30 min; apparent; immobilised compound (amide-linked to poly-2-aminobenzoic acid electrode); logistic fit
[2] = test system: FPAS (fipronil aptamer Short) (DNA, aptamer) AGTTTCTGGAGGACTGGGCGGGGTGACGGTTATG; assay: as above; settings: NaCl 100 mM, MgCl2 2 mM; Tris-HCl 20 mM; 30 min; apparent; immobilised compound (amide-linked to poly-2-aminobenzoic acid electrode); logistic fit
[3] = test system: FPAS (fipronil aptamer Short) (DNA, aptamer) AGTTTCTGGAGGACTGGGCGGGGTGACGGTTATG; assay: electrochemical competitive replacement assay (chronoamperometry); settings: free fipronil displaces 1 µM-loaded aptamer from immobilised fipronil; 1 h

KD [1]: 94.3 ± 0.5 nM | KD [2]: 24.9 ± 1.7 nM | binding [3]: yes
Compound: N#Cc1nn(-c2c(Cl)cc(C(F)(F)F)cc2Cl)c(N)c1S(=O)C(F)(F)F (stereo not drawn)
